The text below walks through data of ChEMBL document CHEMBL6182886, “The Liebeskind-Srogl cross-coupling reaction towards the synthesis of biologically active compounds” (Eur J Med Chem, 2025).

SMILES strings stand for the structures. In brackets after ≈: the same amount, converted by molar mass.

One assay relates to L1210. The assay is described as follows: Cytotoxicity against mouse L1210 cells. In kind it is functional, cell-based.
The test system of a further assay is KB. The assay is described as follows: Cytotoxicity against human KB cells. In kind it is functional, cell-based.
A further assay addresses Cannabinoid receptor 2 (Mus musculus, UniProt P47936). The assay is described as follows: Binding affinity to mouse CB2 receptor extracted from HEK293 cell membrane assessed as inhibition constant. In kind it is cell membranes.
The target of the next assay is Cannabinoid receptor 1 (Rattus norvegicus, UniProt P20272). The assay is described as follows: Binding affinity to rat brain CB1 receptor assessed as inhibition constant. Format: tissue-based.
Cannabinoid receptor 1, sequence (P20272 whole entry): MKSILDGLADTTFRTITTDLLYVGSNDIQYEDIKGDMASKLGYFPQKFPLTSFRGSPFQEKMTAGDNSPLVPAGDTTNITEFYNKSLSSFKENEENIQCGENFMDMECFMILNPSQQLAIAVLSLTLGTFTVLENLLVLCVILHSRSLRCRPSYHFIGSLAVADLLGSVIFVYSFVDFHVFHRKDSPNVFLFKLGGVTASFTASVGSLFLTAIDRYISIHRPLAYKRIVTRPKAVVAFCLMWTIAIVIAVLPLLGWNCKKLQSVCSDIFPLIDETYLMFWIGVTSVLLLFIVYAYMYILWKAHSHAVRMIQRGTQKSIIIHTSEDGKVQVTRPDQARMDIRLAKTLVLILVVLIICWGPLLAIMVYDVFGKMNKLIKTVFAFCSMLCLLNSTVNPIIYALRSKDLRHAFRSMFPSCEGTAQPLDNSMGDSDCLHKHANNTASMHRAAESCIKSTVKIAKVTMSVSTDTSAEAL
The nature of assay [1]: Cytotoxicity against human HOG.R5 cells. Format: functional, cell-based.
Assay [2] concerns Human immunodeficiency virus 1. Briefly: Antiviral activity against HIV-1 infected in human HOG.R5 cells assessed as reduction in viral growth. Format: functional, organism-based. Particulars: Human immunodeficiency virus 1, HOG.R5.
In a further assay the test system is P815. Briefly: Anticancer activity against mouse P815 cells assessed as reduction in cell viability measured for 48 hrs by MTT assay. In kind it is functional, cell-based. The settings on record: P815, 48 h.
Assay [3] can be described thus: Anticancer activity against human HEP cells assessed as reduction in cell viability measured for 48 hrs by MTT assay. In kind it is toxicity, cell-based. A general note: Tetrazolium dyes change colour on reduction, which living cells bring about.

Cannabinoid receptor 2, sequence (P47936 whole entry): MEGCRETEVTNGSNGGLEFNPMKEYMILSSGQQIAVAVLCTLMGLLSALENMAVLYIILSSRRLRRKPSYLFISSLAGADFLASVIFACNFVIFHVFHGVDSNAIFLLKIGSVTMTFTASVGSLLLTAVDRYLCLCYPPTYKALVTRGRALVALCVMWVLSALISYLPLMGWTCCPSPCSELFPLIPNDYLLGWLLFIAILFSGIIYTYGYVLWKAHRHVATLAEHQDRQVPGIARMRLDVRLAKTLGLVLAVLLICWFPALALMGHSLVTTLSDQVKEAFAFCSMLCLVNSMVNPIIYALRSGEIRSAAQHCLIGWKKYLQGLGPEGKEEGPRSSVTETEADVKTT

The IC50 is the concentration at which inhibition is half-maximal. As for `C=C1/C=C(\C)[C@@H](C)[C@@H](O)CC(=O)[C@@H](C)CC(=O)C[C@H]2CC[C@@H](O2)[C@@H](/C=C/C=C(C)C)OC(=O)C[C@@H]2O[C@H](C[C@H]2C)[C@H](O)[C@@H]1O`, the results for the half-maximal inhibitory concentration (IC50) in the assay with L1210 and in the assay with KB were 1.5 µg/mL (≈ 2.43 µM) and 3.2 µg/mL (≈ 5.19 µM), respectively.
By Ki is commonly meant the equilibrium dissociation constant of an inhibitor or competing ligand from its target. For `COCOc1cc(C2=NCCC2)cc2c1[C@@H]1C[C@H](OCOC)CC[C@H]1C(C)(C)O2`, the values for the inhibition constant (Ki) on Cannabinoid receptor 2 and on Cannabinoid receptor 1 were 12.3 nM and 16.3 nM, respectively.
With `CC(C)=CCC/C(C)=C\[C@H]1C(=O)C(C)=C[C@@H]1O`, the IC50 was found to be 5.7 µg/mL (≈ 24.3 µM) in assay [1] and 2 µg/mL (≈ 8.53 µM) in assay [2].
`C=C1/C=C(\C)[C@@H](C)[C@@H](O)CC(=O)[C@@H](C)CC(=O)C[C@H]2CC[C@@H](O2)[C@@H](/C=C/C=C(\C)[C@@H](O)C(=C)CCCC)OC(=O)C[C@@H]2O[C@H](C[C@H]2C)[C@H](O)[C@@H]1O`: the IC50 in the assay with L1210 was 0.0058 µg/mL (≈ 0.00811 µM); in the assay on KB it was 0.0046 µg/mL (≈ 0.00643 µM).
`CCCCCCCCCCCCCC[C@@H]1CCCN1C`: the results for the IC50 (with P815; in assay [3]) were 10 µg/mL (≈ 35.5 µM) and 5 µg/mL (≈ 17.8 µM), respectively.
Take `CCCCCCC1(c2cc(O)c3c(c2)OC(C)(C)[C@@H]2CC[C@@H](O)C[C@@H]32)CN(C)C1`: the Ki at Cannabinoid receptor 2 was 21.3 nM; on Cannabinoid receptor 1 it was 19.2 nM.
In the case of `CC(C)=CCC/C(C)=C/[C@H]1C(=O)C(C)=C[C@@H]1O`, the concentration for half-maximal inhibition (IC50) was 13.2 µg/mL (≈ 56.3 µM) in assay [1] and 5 µg/mL (≈ 21.3 µM) in assay [2].
